# Test results as given in patent US8642566B2, “Therapeutic approaches for treating neuroinflammatory conditions” (Pharnext, priority 2009, dated 2014).
# Key:
# [1] = tested on: mouse EAE model (MOG35-55 immunization); assay: Mouse EAE model, acute oral treatment Day 14 to Day 28, global clinical score (Example 2); format: in vivo, C57L/6J female mice; details: Day 16 to Day 28 after immunization, 1/60 of usual therapeutic doses (clopidogrel hydrogen sulfate 270 μg/kg/day, mecamylamine hydrochloride 9 μg/kg/day), vs EAE mice without treatment
# Experimental: In this experiment, both drugs are equally diluted to ultra-low doses corresponding to 1/60 of their usual therapeutic doses, and importantly, both are administered orally. Protocols for EAE induction and clinical score calculations in this experiment are slightly modified and are described in detail below:
# C57L/6J female mice (8 weeks old) are purchased from Janvier (France); after two weeks of habituation, female mice (10 weeks old) develop chronic paralysis after immunization with MOG (Myelin Oligodendrocyte Glycoprotein) peptide. The experimental encephalomyelitis is induced with the Hooke Kit MOG35-55/CFA Emulsion PTX (Pertussis toxin) for EAE Induction (EK-0110, EK-0115; Hooke laboratories). The control kit is CK-0115 (Hooke laboratories).
# The day 0, two subcutaneous injections of 0.1 ml each are performed; one on upper back of the mouse and one in lower back. Each injection contains 100 μg of MOG35-55 peptide ([sequence]), 200 μg of inactivated Mycobacterium tuberculosis H37Ra and is emulsified in Complete Freund's adjuvant (CFA) (Hooke laboratories). The emulsion provides antigen needed to expand and differentiate MOG-specific autoimmune T cells. […]
# The global score for each animal is determined by the addition of all the above mentioned categories. […]
# [2] = tested on: MOG-immunized mice developing chronic progressive EAE; assay: Acute onset EAE study, 28 days after EAE induction (Example 1); format: in vivo, C57BL/6 mice; details: day 28; treatment from 3 weeks before EAE induction; clopidogrel oral, mecamylamine subcutaneous minipump; combination vs placebo p value less than 0.05
# [3] = tested on: MOG-immunized mice developing chronic progressive EAE; assay: Chronic phase EAE study, 70 days post EAE induction (Example 1); format: in vivo, C57BL/6 mice; details: Manova p<0.005; initial mean weights of all groups equal
# Experimental: Prepare the emulsion containing MOG35-55 stock, PBS and CFA. The volume of MOG35-55 stock=[(The volume of the emulsion)×(1.5 g/L)]/[(3×10-3 mol/L)×(2581.6 g/mol)]; the volume of PBS=[(The volume of the emulsion)/2]−(The volume of MOG35-55 stock); The volume of CFA=(The volume of the emulsion)/2. The emulsion is prepared by diluting the MOG35-55 stock with PBS and then mix equal volumes of this diluent and CFA. The final concentration of MOG35-55 is 300 μg per 200 μL emulsion for each mouse. Air bubbles should be avoided and the syringe must be kept at 4° C. until injection. Before use the stability of the emulsion is tested by adding one drop into a beaker of water: if the drop remains as a solid clump and slowly dissipates, then the emulsion is stable and may be injected.
# Mice are anesthetized with 2% Pentobarbital sodium (i.p injection, 70˜90 μL/mouse) and kept warm under infrared lamp. Injection of 200 ng Pertussis toxin in 200 μL PBS/mouse is performed (i.v.; tail vein) using a 1-mL syringe with 0.4-mm needle. The previously described emulsion is subcutaneously administered with a 1-mL syringe with 0.4-mm needle.
# Mice are kept warm under infrared lamp to perform injection of 200 ng Pertussis toxin in 200 μL PBS via i.v. (tail vein) route, as described for MOG35-55 injection.
# A chronic phase study is run for 70 days post EAE induction. […]
SMILES,"Global clinical score (tail, hind limb, fore limb and bladder scores) [1]",Histological examination: perivascular lymphocyte infiltrate inflammation (perivascular cuffing) in spinal section [2],"Weight gain, Post Hoc comparison with control group treated with placebo (vehicle) [3]"
COC(=O)[C@H](c1ccccc1Cl)N1CCc2sccc2C1 [clopidogrel],no positive effects,different degrees of perivascular inflammation,different from the control group
CNC1(C)C2CCC(C2)C1(C)C (stereo not drawn) [mecamylamine],no positive effects,different degrees of perivascular inflammation,different from the control group
